How the values were obtained:
[1] = molecular target: T1, wild-type auxin receptor (TIR1) (Arabidopsis thaliana, UniProt Q570C0); experiment: Evaluation of binding to auxin receptor (yeast two-hybrid assay), wild-type receptor; conditions: yeast EGY48, LacZ reporter, X-gal, 30° C. for 3 days; wild type auxin receptor with AUX/IAA protein
T1 construct: expressed in transfected cells; host or cells: Saccharomyces cerevisiae strain EGY48
T1 sequence (Q570C0 1-594): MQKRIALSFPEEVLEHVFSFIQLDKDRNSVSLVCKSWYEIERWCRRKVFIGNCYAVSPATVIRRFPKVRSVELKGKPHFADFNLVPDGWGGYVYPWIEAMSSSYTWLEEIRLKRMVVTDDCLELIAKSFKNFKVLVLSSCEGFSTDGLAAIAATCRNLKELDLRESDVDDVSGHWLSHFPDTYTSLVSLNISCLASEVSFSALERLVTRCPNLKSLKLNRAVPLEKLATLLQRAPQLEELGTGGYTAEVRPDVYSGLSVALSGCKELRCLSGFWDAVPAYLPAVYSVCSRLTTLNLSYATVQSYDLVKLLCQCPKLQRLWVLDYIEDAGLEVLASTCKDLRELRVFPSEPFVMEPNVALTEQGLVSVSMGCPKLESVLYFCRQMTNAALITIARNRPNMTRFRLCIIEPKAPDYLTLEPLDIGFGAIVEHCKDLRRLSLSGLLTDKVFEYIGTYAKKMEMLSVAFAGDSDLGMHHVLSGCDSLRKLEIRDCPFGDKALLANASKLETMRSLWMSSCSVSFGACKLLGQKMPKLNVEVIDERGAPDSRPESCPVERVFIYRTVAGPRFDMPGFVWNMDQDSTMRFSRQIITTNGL
T1 sequence (Q38822 1-93 partner limits assumed): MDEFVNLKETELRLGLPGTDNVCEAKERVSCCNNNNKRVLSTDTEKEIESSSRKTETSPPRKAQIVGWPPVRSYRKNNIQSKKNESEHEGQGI
Procedure: (§1) Test Example 1: Evaluation of Binding to Auxin Receptor (Yeast Two-Hybrid Assay
(§2) Specifically, the inventors set up the assay in the following manner.
The transformant was cultured at 30° C. on an agar plate made of yeast growth medium (minimal SD base and -His/-Trp/-Ura dropout supplement). The colonies were picked up and incubated overnight in liquid SD/-His/-Trp/-Ura medium at 30° C. Afterwards, the medium was replaced with a liquid medium composed of minimal SD/Gal/Raf base, -His/-Trp/-Ura dropout supplement, 50 mM Na-phosphate buffer (pH 7.0), […] X-gal, and various concentrations of test compounds. After incubation at 30° C. for 3 days, the medium containing yeast was transferred to a white 96-well plate (flat bottom) and observed.
(§3) In Table 1, the concentration of “wt TIR” indicates the minimum concentration of the test compound in which the well turns blue when the wild type auxin receptor is used, whereas the concentration of “mut” indicates the minimum concentration of the test compound in which the well turns blue when the mutant auxin receptor (TIR1 F79G) is used.

[2] = molecular target: T2, mutant auxin receptor (TIR1 F79G) (Arabidopsis thaliana, UniProt Q570C0, F79G); experiment: Evaluation of binding to auxin receptor (yeast two-hybrid assay), mutant TIR1 F79G; conditions: for TIR1 F79G: minimum concentration of the test compound at which the well turns blue: Table 2, repeated from Test Example 1, Table 1 for comparison; for mut TIR: minimum concentration of the test compound in which the well turns blue: yeast EGY48, LacZ reporter, X-gal, 30° C. for 3 days, TIR1 F79G with AUX/IAA protein
T2 construct: expressed in transfected cells; host or cells: Saccharomyces cerevisiae strain EGY48
T2 sequence (Q570C0 whole entry F79G, one chain of several): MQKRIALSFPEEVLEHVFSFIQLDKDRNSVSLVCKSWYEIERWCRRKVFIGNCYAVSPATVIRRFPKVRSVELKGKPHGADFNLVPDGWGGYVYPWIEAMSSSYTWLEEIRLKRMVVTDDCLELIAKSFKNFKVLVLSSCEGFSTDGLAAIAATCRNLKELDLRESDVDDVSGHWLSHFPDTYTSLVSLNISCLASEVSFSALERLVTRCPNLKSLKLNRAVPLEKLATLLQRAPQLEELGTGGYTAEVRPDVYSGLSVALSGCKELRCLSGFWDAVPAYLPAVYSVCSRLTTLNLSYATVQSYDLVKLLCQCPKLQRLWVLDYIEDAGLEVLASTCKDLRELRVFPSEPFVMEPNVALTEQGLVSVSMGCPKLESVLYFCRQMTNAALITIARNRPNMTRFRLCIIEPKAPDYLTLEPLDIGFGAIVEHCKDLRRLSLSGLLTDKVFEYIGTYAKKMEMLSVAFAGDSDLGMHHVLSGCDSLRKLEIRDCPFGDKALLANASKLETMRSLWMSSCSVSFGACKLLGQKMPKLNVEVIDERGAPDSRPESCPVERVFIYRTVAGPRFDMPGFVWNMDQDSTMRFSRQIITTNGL
Text: as §1, §2
Yeast strain EGY48 was transformed into a plasmid (pSH18-34) containing a LacZ expression cassette (LexA-operon: LacZ reporter) that is transcriptionally regulated by the LexA-operon, a plasmid derived from pGLex313 containing an expression cassette of LexA-DNA-binding domain fusion protein A (the wild-type auxin receptor: SEQ ID NO. 1, or mutant auxin receptor (TIR1 F79G) where the amino acid residue 79 (phenylalanine) in the wild-type is mutated to a glycine: SEQ ID NO. 2), and a plasmid derived from pJG4-5 containing an expression cassette of B42 transcription activator fusion protein B (AUX/IAA protein: SEQ ID NO: 3). The transformant was cultured at 30° C. on an agar plate made of yeast growth medium (minimal SD base and -His/-Trp/-Ura dropout supplement). The colonies were picked up and incubated overnight in liquid SD/-His/-Trp/-Ura medium at 30° C. Afterwards, the medium was replaced with a liquid medium composed of minimal SD/Gal/Raf base, -His/-Trp/-Ura dropout supplement, 50 mM Na-phosphate buffer (pH 7.0), […] X-gal, and various concentrations of test compounds. After incubation at 30° C. for 3 days, the medium containing yeast was transferred to a white 96-well plate (flat bottom) and observed. The lower the concentration of the test compound when blue color appears, the higher the binding between the test compound and the auxin receptor (wild type or mutant) is. Conversely, higher the concentration of test compound when the blue color appears for the first time, the lower the binding between the test compound and the auxin receptor (wild type or mutant).
as §3

[3] = molecular target: T3, mutant auxin receptor (TIR1 F79A) (Arabidopsis thaliana, UniProt Q570C0, F79A); experiment: Evaluation of binding to auxin receptor (yeast two-hybrid assay), mutant TIR1 F79A; conditions: yeast two-hybrid according to Test Example 1
T3 construct: expressed in transfected cells; host or cells: Saccharomyces cerevisiae strain EGY48
T3 sequence (Q570C0 whole entry F79A, one chain of several): as the sequence (Q570C0 whole entry F79G, one chain of several) above, with G79A counted along it

[4] = molecular target: T4, mutant auxin receptor (TIR1 F79S) (Arabidopsis thaliana, UniProt Q570C0, F79S); experiment: Evaluation of binding to auxin receptor (yeast two-hybrid assay), mutant TIR1 F79S; conditions: yeast two-hybrid according to Test Example 1
T4 construct: expressed in transfected cells; host or cells: Saccharomyces cerevisiae strain EGY48
T4 sequence (Q570C0 whole entry F79S, one chain of several): as the sequence (Q570C0 whole entry F79G, one chain of several) above, with G79S counted along it

[5] = tested on: wild-type Arabidopsis seeds; experiment: Root elongation assay (Test Example 5), wild-type seeds; format: in vivo; conditions: wild-type seeds (35S:TIR1 WT in FIG. 4), 0.1 μM
Procedure: (§4) FIG. 4 This is a diagram showing the results of root elongation assay in Test Example 5. On the left side of the photo, “35S:TIR1^F79G” indicates experiments using Arabidopsis seeds having an expression cassette of a mutant auxin receptor (TIR1 F79G), whereas “35S:TIR1^WT” indicates Arabidopsis seeds expressing the wild type auxin receptor (TIR1). On the upper part of the photo, “DMSO” indicates experiments where the plants are not treated with test compounds, “IAA(1) 0.1 μM” indicates experiments where auxin (indole-3-acetic acid) is used as the test compound, and “21 0.1 μM” indicates experiments where the auxin derivative synthesized in Example 30 is used as the test compound.
(§5) Arabidopsis seeds having the expression cassette of mutant auxin receptor (TIR1 F79G) (SEQ ID NO: B) or wild-type Arabidopsis seeds without said expression cassette were sterilized and stored at 4° C. in the dark for several days. The seeds were transferred to 0.5× Murashige and Skoog (MS) liquid medium and incubated for 1 day at 22° C. in the light with shaking at 140 rpm. The test compound was added to the medium at various concentrations and the seeds were further incubated for 1 week. […] If an auxin response signal has been produced in the root, root elongation will be suppressed.
(§6) Test Example 5: Evaluation of Plant Growth Regulating Action 4 (Root Elongation Assay […]

[6] = tested on: Arabidopsis seeds expressing the mutant auxin receptor (TIR1 F79G); experiment: Root elongation assay (Test Example 5), TIR1 F79G seeds; format: in vivo; conditions: 35S:TIR1 F79G seeds, 0.1 μM; FIG. 4
Procedure: as §4, §5, §6

Structure (SMILES)	wt TIR: minimum concentration of the test compound in which the well turns blue [1] [µM]	TIR1 F79G: minimum concentration of the test compound at which the well turns blue [2] [µM]	mut TIR: minimum concentration of the test compound in which the well turns blue [2] [µM]	TIR1 F79A: minimum concentration of the test compound at which the well turns blue [3] [µM]	TIR1 F79S: minimum concentration of test compound at which the well turns blue [4] [µM]	inhibition of root elongation [5]	inhibition of root elongation [6]
O=C(O)Cc1c[nH]c2ccc(C3CCCCC3)cc12 [Compound 15, 2-(5-cyclohexyl-1H-indol-3-yl)acetic acid]	0.1	0.001	0.001	0.0001	0.001	–	–
O=C(O)Cc1c[nH]c2ccc(C34CC5CC(CC(C5)C3)C4)cc12 [Compound 21, 2-(5-((3r, 5r, 7r)-adamantan-1-yl)-1H-indol-3-yl)acetic acid]	0.1	0.001	0.001	0.00001	0.0001	does not inhibit root elongation	inhibited root elongation
Cc1ccc(COc2ccc3[nH]cc(CC(=O)O)c3c2)cc1 [MK-350, 2-(5-((4-methylbenzyl)oxy)-1H-indol-3-yl)acetic acid]	>100	–	100	–	–	–	–
Cc1cc(C)cc(-c2ccc3[nH]cc(CC(=O)O)c3c2)c1 [MK-379, 2-(5-(3,5-dimethylphenyl)-1H-indol-3-yl)acetic acid]	100	–	1	–	–	–	–
CCCCOc1ccc2[nH]cc(CC(=O)O)c2c1 [RY-215, 2-(5-(butyloxy)-1H-indol-3-yl)acetic acid, reference compound]	10	–	0.1	–	–	–	–
